Earlier results in patent publication US7786119B2, “Drug conjugates of ion channel modulating compounds” (Cardiome Pharma Corp., priority 2004, dated 2010).

Tests used:
[1] = optically pure d-sotalol; SWORD study

SMILES: CC(C)NC[C@@H](O)c1ccc(NS(C)(=O)=O)cc1 [d-sotalol]
- increased mortality compared to placebo [1]: 65%

SMILES: CCCCCCCN(CC)CCCC(O)c1ccc(NS(C)(=O)=O)cc1 (stereo not drawn) [ibutilide]
- risk of ventricular proarrhythmia (estimated): ~4.4%
- patients requiring cardioversion for refractory ventricular arrhythmias (in vivo): ~1.7%
